From paper PMC7822874, “Chemoprotective antimalarials identified through quantitative high-throughput screening of Plasmodium blood and liver stage parasites” (Scientific Reports, 2021)
Like-named read-outs stand apart in the source and are kept apart here.

What was measured:
[1] = test system: Plasmodium falciparum Dd2 asexual blood stage parasites; test: microbe, parasite or virus in culture; set-up: species or system Plasmodium falciparum Dd2 in human erythrocytes; single determination (one 11-point concentration-response curve); settings: Plasmodium falciparum, DD2, Erythrocyte, 72 h; read-out: AC50
[2] = in vitro; settings: human
[3] = test system: HepG2; settings: human, hepg2 cells, 48 h
[4] = in vitro; settings: human, hepg2 cells
[5] = test system: P. berghei-ANKA-GFP-LucCON liver stage parasites in HepG2-A16-CD81EGFP cells; test: P. berghei liver stage Pb-Luc assay, Method 1 (UCSD, 1536-well); assay type: cell-based, Plasmodium berghei; settings: Method 1; for Max Resp (signal direction of the dose response): Decrease = decreasing P. berghei viability with dose, Increase = increasing signal, Inactive = no dose response; for AC50: Plasmodium berghei
[6] = HepG2-A16-CD81EGFP cells, uninfected
[7] = Hill fit, 50% of maximum activity response, read-out: AC50
[8] = log10 of molar AC50 from Hill fit, read-out: Log AC50 (converted)

Row | SMILES | AC50 [1] | Log AC50 (M) [3] | CC50 at 48 h [4] | viability at 48 h, 1 µM [2, 6] | viability at 48 h, 3 µM [2, 6] | other results
1 | Cc1cnc(C(=O)Nc2cccc3cccnc23)cn1 [MLS000033120-01] | 2.66 µM | -6.2143 M | 0.611 µM | – | – | viability at 66 h [2, 6]: 105%
2 | CCc1ccc(Nc2cc(=O)n(C3CCCCC3)c(=O)[nH]2)cc1 [MLS000094379-01] | – | -4.3643 M | 43.2 µM | – | – | viability at 66 h [2, 6]: 104%
3 | CC(Sc1nc2ccccc2c(=O)n1C)C(=O)Nc1ccc2c(c1)OCCO2 (stereo not shown) [MLS002161477-01] | – | -4.3643 M | 43.2 µM | 84% | – | Max Resp (signal direction of the dose response) [5]: Inactive; viability at 48 h [2, 6]: 84%
4 | Cc1nc2c(=O)n(C)c(=O)nc-2n(C)n1 [MLS000528498-01] | 0.422 µM | -6.0643 M | 0.862 µM | – | – | Max Resp (signal direction of the dose response) [5]: Decrease; AC50 [5, 7]: 0.056 µM; AC50 [5, 8]: 0.0562 µM
5 | CN1C2CCC1/C(=C/c1ccccn1)C(=O)/C2=C\c1ccccn1 [MLS000702810-01] | – | -4.8143 M | 15.3 µM | – | – | Max Resp (signal direction of the dose response) [5]: Decrease; AC50 [5, 7]: 0.794 µM; AC50 [5, 8]: 0.794 µM; viability at 48 h [2]: 76.4%; viability at 48 h, 1 µM [2]: 76.4%
6 | CC(=O)Nc1ccc(NC2=Nc3ccccc3N3C2=Nc2c(c(C)nn2-c2ccccc2)C3c2ccccc2)cc1 (stereo not shown) [MLS000555438-01] | 6.68 µM | -4.3143 M | 48.5 µM | – | – | viability at 66 h [2, 6]: 95.3%
7 | COc1cc(OC)c(NC2=CC(=O)C(=O)c3ccccc32)cc1Cl [MLS001198657-01] | 2.99 µM | -4.3643 M | 43.2 µM | 93% | 59% | –
8 | Cc1cccc(Oc2nc(-c3ccccn3)nc3ccccc23)c1 [MLS000769548-01] | 7.5 µM | -4.9143 M | 12.2 µM | 106% | – | viability at 48 h [2, 6]: 106%
9 | CN1CCN(c2ccc(Nc3ccnc4cc(Cl)ccc34)cc2)CC1 [MLS001203414-01] | 0.188 µM | -4.6143 M | 24.3 µM | 86% | 90% | –
10 | COc1cc2nc(Nc3ccc(C)c(C)c3)nc(N)c2cc1OC [NCGC00107261-01] | 0.75 µM | -4.3643 M | 43.2 µM | 107% | 97% | –
11 | CC1(C)N=C(N)N=C(N)N1c1ccc(OCCCOc2ccccc2)c(Cl)c1 [MLS000738223-01] | 2.99 µM | -5.1143 M | 7.69 µM | 39% | 32% | –
12 | CCN1CCN(Cc2ccc(NC(=O)c3ccc(C)c(NC(=O)c4cnc5cc(C(F)(F)F)ccc5c4O)c3)cc2C(F)(F)F)CC1 [MLS000911561-01] | 0.531 µM | -4.4643 M | 34.3 µM | 107% | 104% | –
13 | CCn1c(/C=C/c2cc(Br)ccc2O)nc2ccccc2c1=O [MLS001205008-01] | 4.22 µM | -4.8643 M | 13.7 µM | 104% | 101% | –
14 | CCOc1ccc(Nc2nc(NCC3CCCO3)c3ccccc3n2)cc1 (stereo not shown) [MLS000724397-01] | 1.88 µM | -4.3643 M | 43.2 µM | 104% | 83% | –
15 | CN1CCC(NCCC(c2ccc(F)cc2)c2ccc(Cl)cc2)CC1 (stereo not shown) [MLS001215866-01] | 4.22 µM | -4.4643 M | 34.3 µM | – | – | viability at 66 h [2, 6]: 98.6%
16 | c1ccc2cc3c(NCCN4CCOCC4)ccnc3cc2c1 [MLS000702892-01] | 1.68 µM | -4.3643 M | 43.2 µM | 89% | 92% | –

Row | SMILES | AC50 [1] | Log AC50 (M) [3] | CC50 at 48 h [4] | viability at 48 h, 1 µM [2, 6] | viability at 48 h, 3 µM [2, 6] | other results
17 | CCc1ccc([S+](=O)([O-])c2nnn3c2nc(Nc2ccc(F)cc2)c2cc(Cl)ccc23)cc1 [NCGC00112284-01] | 2.11 µM | -4.4643 M | 34.3 µM | – | – | viability at 66 h [2, 6]: 105%
18 | N=c1ccn(Cc2ccc(Cl)cc2)cc1 [MLS000080110-01] | 8.41 µM | -4.4643 M | 34.3 µM | – | – | viability at 66 h [2, 6]: 101%
19 | c1ccc(-[n+]2nc(Nc3cccc4ccccc34)sc2-c2c3ccccc3cc3ccccc23)cc1 [MLS000949879-01] | 5.96 µM | -4.3643 M | 43.2 µM | – | – | viability at 66 h [2, 6]: 95.1%
20 | CCNc1nc(NC(C)(C)C)nc(N2CCCC2)n1 [MLS000528993-01] | 2.37 µM | -4.3643 M | 43.2 µM | – | – | viability at 66 h [2, 6]: 99.9%
21 | CN(C)CC(CCC(CN(C)C)C(O)(c1ccccc1)c1ccccc1)C(O)(c1ccccc1)c1ccccc1 (stereo not shown) [MLS001173677-01] | 2.11 µM | -4.4643 M | 34.3 µM | 101% | 98% | –
22 | CCN1CC=C(c2c[nH]c3ccccc23)CC1 [MLS000093713-01] | 4.22 µM | -4.6143 M | 24.3 µM | – | – | viability at 66 h [2]: 103%
23 | COc1ccc(/C=N/Nc2cc(C)nc3ccccc23)cc1 [MLS001210939-01] | 2.11 µM | -4.5143 M | 30.6 µM | 92% | 87% | –
24 | CCOC(=O)c1sc(NC(=O)CNCc2ccccn2)c(C(=O)OCC)c1C [MLS001005083-01] | – | -4.3643 M | 43.2 µM | 101% | 96% | –
25 | Cc1c2ccncc2c(C)c2c1[nH]c1ccccc12 [MLS001076505-01] | 3.35 µM | -4.3643 M | 43.2 µM | – | – | viability [2]: 102%
26 | COc1ccc(C2c3ccc4ccccc4c3Oc3ncn(CCCN(C)C)c(=N)c32)cc1 (stereo not shown) [MLS001216280-01] | 2.99 µM | -4.4643 M | 34.3 µM | 109% | 103% | –
27 | c1ccc(-c2nc(N3CCCCCC3)c3ccccc3n2)nc1 [MLS000042263-01] | 1.68 µM | -5.5643 M | 2.73 µM | 102% | 88% | –
28 | CCN(CC)CCn1c(=N)n(CC(=O)c2ccc(Br)s2)c2ccccc21 [MLS001045932-01] | 5.31 µM | -4.5143 M | 30.6 µM | 91% | 91% | –
29 | CCCN(CCC)CCNC(=O)c1cc2c(-c3ccc(Cl)cc3)nn(C)c2s1 [NCGC00108997-01] | 0.596 µM | -4.3643 M | 43.2 µM | 102% | 98% | –
30 | O=C(Nc1nc(-c2ccccn2)cs1)Nc1ccc(F)cc1F [MLS001175659-01] | 5.31 µM | -4.7643 M | 17.2 µM | 94% | 79% | –
31 | OC(c1cc(-c2ccc(C(F)(F)F)cc2)nc(C(F)(F)F)c1)C1CCCCN1 (stereo not shown) [MLS000757046-01] | 0.15 µM | -4.3643 M | 43.2 µM | 109% | 105% | –
32 | O=C(NC(c1ccc(Cl)cc1)c1cc(Cl)c2cccnc2c1O)c1cccnc1 (stereo not shown) [MLS000573463-01] | 5.96 µM | -4.3643 M | 43.2 µM | 84% | 68% | –
